Laboratory results from PubChem BioAssay AID651782 (The Scripps Research Institute Molecular Screening Center, 2012).
The source made the active and inactive calls.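 Rule for the calls: active = IC50 of 10 µM or lower; inactive = IC50 above 10 µM.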

Target: Nuclear receptor coactivator 2 (Homo sapiens) (UniProt Q15596)
Experiment: inhibition of GAL4-SRC2 reporter transcription – cell-based, HEK293, GAL4-SRC2 luciferase, powder samples, selectivity assay for SRC3 inhibitor project, late-stage follow-up (AID 651782)
Settings: luminescence

Nuclear receptor coactivator 2 (Homo sapiens), sequence (Q15596 whole entry, looked up, the tested form may be a part): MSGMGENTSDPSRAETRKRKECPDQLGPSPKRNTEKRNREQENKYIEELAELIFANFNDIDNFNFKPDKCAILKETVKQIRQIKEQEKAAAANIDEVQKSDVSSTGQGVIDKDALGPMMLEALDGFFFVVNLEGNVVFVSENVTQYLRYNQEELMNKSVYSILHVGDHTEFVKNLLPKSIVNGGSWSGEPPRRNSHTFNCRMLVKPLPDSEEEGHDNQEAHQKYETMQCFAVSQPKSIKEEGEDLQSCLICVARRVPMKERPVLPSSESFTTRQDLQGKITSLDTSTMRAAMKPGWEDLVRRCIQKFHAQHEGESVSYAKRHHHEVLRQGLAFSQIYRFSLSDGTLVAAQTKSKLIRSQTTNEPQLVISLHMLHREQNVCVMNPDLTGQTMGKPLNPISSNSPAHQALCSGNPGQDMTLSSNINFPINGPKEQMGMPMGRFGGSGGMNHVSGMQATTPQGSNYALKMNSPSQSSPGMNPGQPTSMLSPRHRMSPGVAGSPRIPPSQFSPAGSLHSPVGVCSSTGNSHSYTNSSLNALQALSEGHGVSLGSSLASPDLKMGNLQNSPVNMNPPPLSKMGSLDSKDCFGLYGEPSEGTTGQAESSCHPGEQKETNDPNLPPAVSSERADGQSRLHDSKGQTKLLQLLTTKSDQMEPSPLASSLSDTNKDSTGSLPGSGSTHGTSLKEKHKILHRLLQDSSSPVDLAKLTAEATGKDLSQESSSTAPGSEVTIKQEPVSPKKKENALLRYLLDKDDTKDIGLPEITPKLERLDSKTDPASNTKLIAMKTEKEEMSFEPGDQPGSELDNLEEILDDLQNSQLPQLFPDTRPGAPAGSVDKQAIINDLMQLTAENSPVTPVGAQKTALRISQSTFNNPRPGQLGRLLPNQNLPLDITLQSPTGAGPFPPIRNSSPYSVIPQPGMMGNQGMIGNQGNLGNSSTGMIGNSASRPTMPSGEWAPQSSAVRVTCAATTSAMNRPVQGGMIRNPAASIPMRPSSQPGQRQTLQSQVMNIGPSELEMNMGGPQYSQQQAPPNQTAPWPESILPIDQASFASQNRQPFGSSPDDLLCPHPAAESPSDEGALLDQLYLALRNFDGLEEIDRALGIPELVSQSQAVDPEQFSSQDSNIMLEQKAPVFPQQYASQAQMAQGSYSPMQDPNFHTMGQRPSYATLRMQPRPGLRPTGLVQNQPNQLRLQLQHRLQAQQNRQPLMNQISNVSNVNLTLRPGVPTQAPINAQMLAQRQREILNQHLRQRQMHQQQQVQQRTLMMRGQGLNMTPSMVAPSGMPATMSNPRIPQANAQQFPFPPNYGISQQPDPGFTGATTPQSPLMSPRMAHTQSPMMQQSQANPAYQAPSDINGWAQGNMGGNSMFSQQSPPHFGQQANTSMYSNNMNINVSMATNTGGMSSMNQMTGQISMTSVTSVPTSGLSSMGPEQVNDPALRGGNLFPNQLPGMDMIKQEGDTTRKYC

Structure (SMILES) | IC50
O=C(Nc1ccccc1Oc1ccccc1)c1cc([N+](=O)[O-])ccc1Cl | 5.4 µM
O=C(COC(=O)c1ccc[nH]c1=O)Nc1ccc(N2CCCCC2)cc1 | > 35.9 µM (inactive)
CC(C)(C)c1ccc(-c2noc(CCC(=O)Nc3cccnc3)n2)cc1 | > 35.9 µM (inactive)
Cc1ccc(OCC(=O)c2cc(C)n(-c3ccccc3)c2C)c([N+](=O)[O-])n1 | inactive
CCCNC(=O)c1nnsc1S(=O)(=O)c1ccc(Cl)cc1 | inactive
OCCN1CCN(C(=S)c2ccc(-c3ccccc3)cc2)CC1 | 4.68 µM

More lines, now with the values ahead:

IC50 | Structure (SMILES)
> 35.9 µM (inactive) | CN1C(=O)C2(C(C#N)=C(N)N(c3cc(Cl)cc(Cl)c3)C3=C2C(=O)CCC3)c2ccccc21 (stereo not drawn)
inactive | CN1C(=O)C2(C(C#N)=C(N)N(c3cc(Cl)cc(Cl)c3)C3=C2C(=O)CC(C)(C)C3)c2ccccc21 (stereo not drawn)
